Results on 5 compounds are retold here after ChEMBL document CHEMBL3871305, “Imidazopyridyl compounds as aldosterone synthase inhibitors” (Bioorg Med Chem Lett, 2017).

Data set [1] can be described thus: in vitro. Conditions: human, liver microsomes. In general terms: Microsomes from liver hold many membrane-bound enzymes, among them those of drug oxidation.
Data set [2] can be described thus: in vitro. Conditions: rat, liver microsomes.
A short description of data set [3]: in vitro. Conditions: rhesus monkey, liver microsomes.
Data set [4] in a line: Plasma clearance in Wistar Han rat at 1 mg/kg, iv or 2 mg/kg, po. It is filed as ADME, organism-based.
Data set [5] is described as follows: Volume of distribution at steady state in Wistar Han rat at 1 mg/kg, iv or 2 mg/kg, po. It is filed as ADME, organism-based. Conditions: in vivo, read-out: Vdss.
Data set [6] is described as follows: MRT in Wistar Han rat at 1 mg/kg, iv or 2 mg/kg, po. Conditions: in vivo. It is filed as ADME, organism-based.
Data set [7] is described as follows: Half life in Wistar Han rat at 1 mg/kg, iv or 2 mg/kg, po. Conditions: in vivo. It is filed as ADME, organism-based.
The nature of data set [8]: Dose normalized AUC in Wistar Han rat at 2 mg/kg, po. It is filed as ADME, organism-based. Conditions: in vivo.
The nature of data set [9]: Cmax in Wistar Han rat at 1 mg/kg, iv or 2 mg/kg, po. Conditions: in vivo. It is filed as ADME, organism-based.
Data set [10] in a line: Oral bioavailability in Wistar Han rat at 2 mg/kg. It is filed as ADME, organism-based. Conditions: in vivo.

In general, share remaining refers to the share of the starting amount still present when the sample was taken. As for `Fc1cncc(-c2nc3ccc(F)cn3c2C2CC2)c1`, the share remaining at 0.5 h, 1 µM in data set [1] worked out at 93%; in data set [2], 70%; in data set [3], 29%.
In the same order, the values of `CCc1c(F)cncc1-c1nc2ccc(F)cn2c1C1CC1` are 37%, 2% and 0%.
Usually MRT stands for a mean duration of stay, worked out from the concentration-time curve. For orientation: half-life means how long it takes for the measured level to halve. The low end stands for rapid decline, the high end for slow decline. As usually defined, the Cmax is the peak of the concentration-time curve. As a reminder, the bioavailability is dose-corrected exposure relative to a reference, in per cent. As to `C[C@](O)(c1cncc(-c2nc3ccc(F)cn3c2C2CC2)c1)C(F)(F)F`, the clearance in data set [4] worked out at 23 mL/min/kg. Further, the Vd in data set [5] was determined as 0.82 L/kg. This compound yielded an MRT in [6] of 34.8 min. Further, the half-life in data set [7] was 36.6 min. The compound also returned an AUC/dose in data set [8] of 0.92 µM·kg·h/mg. In addition, the Cmax in [9] came out at 700 nM. The compound also gave a bioavailability in data set [10] of 47%. Besides, the fraction remaining at 0.5 h, 1 µM in data set [1] is 88%; in data set [2] it was 38%; in [3] it was 31%.
For `C[C@@](O)(c1cncc(-c2nc3ccc(F)cn3c2C2CC2)c1)C(F)(F)F`, the share remaining at 0.5 h, 1 µM came to 96% in data set [1], 33% in [2] and 31% in data set [3].
As to `Fc1cncc(-c2nc3cc(F)c(Cl)cn3c2C2CC2)c1`, the amount remaining at 0.5 h, 1 µM in data set [1] came to 93%; in data set [2], 80%; in data set [3], 87%.
